Measurements published in article PMC10485003, “Antibiotic hyper-resistance in a class I aminoacyl-tRNA synthetase with altered active site signature motif” (Nature Communications, 2023).
Values joined by “and” are separate entries in the source; they are usually repeats but may differ in a detail not shown here. Equal values may be shown once.

Molecular target: T1, mut-GVHH PmIleRS2 (Priestia megaterium, UniProt A0A0B6AVD3, G56H/H54G)
T1 sequence (A0A0B6AVD3 1-1032 H54G/G56H): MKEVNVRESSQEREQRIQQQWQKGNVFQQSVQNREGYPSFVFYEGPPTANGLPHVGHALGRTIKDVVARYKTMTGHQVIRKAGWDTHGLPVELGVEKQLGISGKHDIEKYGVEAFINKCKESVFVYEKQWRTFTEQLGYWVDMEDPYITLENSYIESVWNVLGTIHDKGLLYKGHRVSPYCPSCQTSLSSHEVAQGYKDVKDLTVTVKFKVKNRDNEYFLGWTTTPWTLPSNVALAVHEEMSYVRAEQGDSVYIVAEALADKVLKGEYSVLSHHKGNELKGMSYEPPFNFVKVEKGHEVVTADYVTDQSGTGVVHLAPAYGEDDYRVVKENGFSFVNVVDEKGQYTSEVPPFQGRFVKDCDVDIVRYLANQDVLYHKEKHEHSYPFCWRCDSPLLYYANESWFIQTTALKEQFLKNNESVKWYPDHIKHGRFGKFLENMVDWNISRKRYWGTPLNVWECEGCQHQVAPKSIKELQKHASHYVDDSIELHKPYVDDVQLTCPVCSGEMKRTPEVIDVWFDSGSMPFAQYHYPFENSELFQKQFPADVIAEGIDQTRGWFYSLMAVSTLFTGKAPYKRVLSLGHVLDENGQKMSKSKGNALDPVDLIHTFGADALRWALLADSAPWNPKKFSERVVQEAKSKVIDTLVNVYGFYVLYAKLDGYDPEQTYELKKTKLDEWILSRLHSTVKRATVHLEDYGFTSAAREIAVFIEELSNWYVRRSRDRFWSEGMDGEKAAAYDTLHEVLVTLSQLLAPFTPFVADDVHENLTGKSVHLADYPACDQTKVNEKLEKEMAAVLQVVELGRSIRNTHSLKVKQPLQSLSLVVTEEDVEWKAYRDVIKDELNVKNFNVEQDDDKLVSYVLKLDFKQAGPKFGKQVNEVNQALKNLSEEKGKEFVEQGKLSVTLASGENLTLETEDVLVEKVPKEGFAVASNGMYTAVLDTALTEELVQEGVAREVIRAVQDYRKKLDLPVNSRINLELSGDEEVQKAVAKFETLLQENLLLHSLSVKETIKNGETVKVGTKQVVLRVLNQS
Assay: ATP-PPi exchange assay, mupirocin inhibition of amino acid activation
Type: biochemical, Priestia (Bacillus) megaterium
Method: L-Ile and ATP concentrations ranged from 1/10 KM to 10 KM values. When measuring the KI towards one of the substrates, the other was held in saturation (concentrations at least 10 KM). The aliquots of the reaction mixture (1–2.5 μl) were quenched in 2 volumes of 500 mM NaOAc pH = 4.5, 0.1% SDS, and formed ^32P-ATP was separated from the remaining ^32P-PPi by thin-layer chromatography on Polygram CEL 300 PEI UV254 TLC plates (Macherey-Nagel, cat: 801063) using 750 mM KH2PO4 pH=3.5, 4 M urea buffer. Visualization and quantification of the signals was performed using a Typhoon Phosphoimager 5 (General Electric) and accompanying ImageQuant™ TL software (SV: 10.2). The kinetic constants were determined using a global fit option of the competitive inhibition model of GraphPad Prism 6 software (SV: 6.01). All experiments were performed in triplicates. The kcat was determined by dividing the maximal velocity, VM, with the used enzyme concentration. […]
variable substrate (ATP or Ile) was varied in the range of 0.1 KM to 10 KM. The other substrate (Ile or ATP) was kept in excess at 5 to 10 KM. Data were globally fitted to the competitive inhibition model using GraphPad prism 6.01 for Windows software. The values represent the average value ± SD of three independent experiments. Source data are provided as a Source Data file.

`C/C(=C\C(=O)OCCCCCCCCC(=O)O)C[C@@H]1OC[C@H](C[C@@H]2O[C@H]2[C@@H](C)[C@H](C)O)[C@@H](O)[C@H]1O` [mupirocin] was tested. Which vo (c (mupirocin) = 5.0 mM, c (Ile) 250.0 μM, Replica 3) did it give?
Its vo is 0.00839 mM/min.

And the vo (c (mupirocin) = 5.0 mM, c (Ile) 500.0 μM, Replica 1)?
The vo was 0.01582 mM/min.

What about the vo (c (mupirocin) = 5.0 mM, c (Ile) 500.0 μM, Replica 2) of the same molecule?
The vo was 0.01771 mM/min.

What about the vo (c (mupirocin) = 5.0 mM, c (Ile) 500.0 μM, Replica 3) of the same molecule?
Its vo is 0.01671 mM/min.

And the vo (c (mupirocin) = 5.0 mM, c (Ile) 1000.0 μM, Replica 1)?
The vo was 0.02937 mM/min.

And the vo (c (mupirocin) = 5.0 mM, c (Ile) 1000.0 μM, Replica 2)?
Its vo is 0.03008 mM/min.

What about the vo (c (mupirocin) = 5.0 mM, c (Ile) 1000.0 μM, Replica 3) of the same molecule?
The vo was 0.02918 mM/min.

What about the vo (c (mupirocin) = 5.0 mM, c (Ile) 1500.0 μM, Replica 1) of the same molecule?
The vo was 0.03962 mM/min.

What about the vo (c (mupirocin) = 5.0 mM, c (Ile) 1500.0 μM, Replica 2) of the same molecule?
The vo was 0.03913 mM/min.

And the vo (c (mupirocin) = 5.0 mM, c (Ile) 1500.0 μM, Replica 3)?
Its vo is 0.04025 mM/min.

And the vo (c (mupirocin) = 10.0 mM, c (Ile) 100.0 μM, Replica 1)?
Its vo is 0.00192 mM/min.

And the vo (c (mupirocin) = 10.0 mM, c (Ile) 100.0 μM, Replica 2)?
The vo was 0.00188 mM/min.

And the vo (c (mupirocin) = 10.0 mM, c (Ile) 100.0 μM, Replica 3)?
The vo was 0.00205 mM/min.

And the vo (c (mupirocin) = 10.0 mM, c (Ile) 250.0 μM, Replica 1)?
Its vo is 0.00384 mM/min.

What about the vo (c (mupirocin) = 10.0 mM, c (Ile) 250.0 μM, Replica 2) of the same molecule?
Its vo is 0.00477 mM/min.

What about the vo (c (mupirocin) = 10.0 mM, c (Ile) 250.0 μM, Replica 3) of the same molecule?
Its vo is 0.00429 mM/min.

What about the vo (c (mupirocin) = 10.0 mM, c (Ile) 500.0 μM, Replica 1) of the same molecule?
Its vo is 0.00975 mM/min.

And the vo (c (mupirocin) = 10.0 mM, c (Ile) 500.0 μM, Replica 2)?
Its vo is 0.01055 mM/min.

What about the vo (c (mupirocin) = 10.0 mM, c (Ile) 500.0 μM, Replica 3) of the same molecule?
Its vo is 0.01023 mM/min.

What about the vo (c (mupirocin) = 10.0 mM, c (Ile) 1000.0 μM, Replica 1) of the same molecule?
The vo was 0.01549 mM/min.

What about the vo (c (mupirocin) = 10.0 mM, c (Ile) 1000.0 μM, Replica 2) of the same molecule?
Its vo is 0.01681 mM/min.

And the vo (c (mupirocin) = 10.0 mM, c (Ile) 1000.0 μM, Replica 3)?
Its vo is 0.01726 mM/min.

What about the vo (c (mupirocin) = 10.0 mM, c (Ile) 1500.0 μM, Replica 1) of the same molecule?
Its vo is 0.02248 mM/min.

What about the vo (c (mupirocin) = 10.0 mM, c (Ile) 1500.0 μM, Replica 2) of the same molecule?
The vo was 0.02398 mM/min.

And the vo (c (mupirocin) = 10.0 mM, c (Ile) 1500.0 μM, Replica 3)?
The vo was 0.02428 mM/min.

What about the initial velocity vo (c(mupirocin) 0.5 mM, c(ATP) 0.5 mM) of the same molecule?
Its initial velocity vo is 0.00635 mM/min and 0.00811 mM/min.

And the initial velocity vo (c(mupirocin) 0.5 mM, c(ATP) 1.0 mM)?
Its initial velocity vo is 0.01441 mM/min and 0.01486 mM/min and 0.01387 mM/min.

What about the initial velocity vo (c(mupirocin) 0.5 mM, c(ATP) 2.5 mM) of the same molecule?
The initial velocity vo was 0.03283 mM/min and 0.03264 mM/min and 0.03523 mM/min.

And the initial velocity vo (c(mupirocin) 0.5 mM, c(ATP) 5.0 mM)?
The initial velocity vo was 0.05375 mM/min and 0.05359 mM/min and 0.05506 mM/min.

What about the initial velocity vo (c(mupirocin) 0.5 mM, c(ATP) 10.0 mM) of the same molecule?
The initial velocity vo was 0.07349 mM/min and 0.07632 mM/min and 0.07609 mM/min.

And the initial velocity vo (c(mupirocin) 0.5 mM, c(ATP) 20.0 mM)?
Its initial velocity vo is 0.09482 mM/min and 0.09569 mM/min and 0.09403 mM/min.

What about the initial velocity vo (c(mupirocin) 0.5 mM, c(Ile) 50.0 μM) of the same molecule?
Its initial velocity vo is 0.00742 mM/min and 0.00851 mM/min and 0.00786 mM/min.

And the initial velocity vo (c(mupirocin) 1.0 mM, c(ATP) 0.5 mM)?
Its initial velocity vo is 0.00716 mM/min and 0.0055 mM/min and 0.00625 mM/min.

What about the initial velocity vo (c(mupirocin) 1.0 mM, c(ATP) 1.0 mM) of the same molecule?
Its initial velocity vo is 0.01194 mM/min and 0.01202 mM/min and 0.01221 mM/min.

What about the initial velocity vo (c(mupirocin) 1.0 mM, c(ATP) 2.5 mM) of the same molecule?
The initial velocity vo was 0.0252 mM/min and 0.02429 mM/min and 0.02403 mM/min.

And the initial velocity vo (c(mupirocin) 1.0 mM, c(ATP) 5.0 mM)?
Its initial velocity vo is 0.04205 mM/min and 0.0434 mM/min and 0.0426 mM/min.

And the initial velocity vo (c(mupirocin) 1.0 mM, c(ATP) 10.0 mM)?
Its initial velocity vo is 0.06359 mM/min and 0.06579 mM/min and 0.06457 mM/min.

And the initial velocity vo (c(mupirocin) 1.0 mM, c(ATP) 20.0 mM)?
The initial velocity vo was 0.08534 mM/min and 0.08763 mM/min and 0.08559 mM/min.

What about the initial velocity vo (c(mupirocin) 1.0 mM, c(Ile) 50.0 μM) of the same molecule?
The initial velocity vo was 0.00713 mM/min and 0.00706 mM/min and 0.00704 mM/min.

And the initial velocity vo (c(mupirocin) 2.5 mM, c(ATP) 1.0 mM)?
Its initial velocity vo is 0.00558 mM/min and 0.0055 mM/min and 0.00551 mM/min.

And the initial velocity vo (c(mupirocin) 2.5 mM, c(ATP) 2.5 mM)?
Its initial velocity vo is 0.01306 mM/min and 0.01742 mM/min and 0.01281 mM/min.

What about the initial velocity vo (c(mupirocin) 2.5 mM, c(ATP) 5.0 mM) of the same molecule?
The initial velocity vo was 0.02499 mM/min and 0.026 mM/min and 0.02496 mM/min.

What about the initial velocity vo (c(mupirocin) 2.5 mM, c(ATP) 10.0 mM) of the same molecule?
Its initial velocity vo is 0.04221 mM/min and 0.04045 mM/min and 0.04296 mM/min.

And the initial velocity vo (c(mupirocin) 2.5 mM, c(ATP) 20.0 mM)?
Its initial velocity vo is 0.05896 mM/min and 0.06416 mM/min and 0.05964 mM/min.

And the initial velocity vo (c(mupirocin) 2.5 mM, c(Ile) 50.0 μM)?
Its initial velocity vo is 0.00279 mM/min and 0.00348 mM/min and 0.00209 mM/min.

And the initial velocity vo (c(mupirocin) 5.0 mM, c(ATP) 0.5 mM)?
The initial velocity vo was 0.00206 mM/min and 0.00219 mM/min and 0.0025 mM/min.

And the initial velocity vo (c(mupirocin) 5.0 mM, c(ATP) 1.0 mM)?
The initial velocity vo was 0.00362 mM/min and 0.00342 mM/min and 0.00337 mM/min.

What about the initial velocity vo (c(mupirocin) 5.0 mM, c(ATP) 2.5 mM) of the same molecule?
Its initial velocity vo is 0.00795 mM/min and 0.00842 mM/min and 0.00825 mM/min.

What about the initial velocity vo (c(mupirocin) 5.0 mM, c(ATP) 5.0 mM) of the same molecule?
The initial velocity vo was 0.01509 mM/min and 0.0154 mM/min and 0.01576 mM/min.

And the initial velocity vo (c(mupirocin) 5.0 mM, c(ATP) 10.0 mM)?
The initial velocity vo was 0.02771 mM/min and 0.02665 mM/min and 0.0265 mM/min.

And the initial velocity vo (c(mupirocin) 5.0 mM, c(ATP) 20.0 mM)?
Its initial velocity vo is 0.04308 mM/min and 0.04226 mM/min.

What about the initial velocity vo (c(mupirocin) 5.0 mM, c(Ile) 50.0 μM) of the same molecule?
Its initial velocity vo is 0.00223 mM/min and 0.00239 mM/min and 0.00197 mM/min.

What about the initial velocity vo (c(mupirocin) 10.0 mM, c(Ile) 50.0 μM) of the same molecule?
Its initial velocity vo is 0.00094 mM/min and 0.00075 mM/min and 0.00127 mM/min.
